Tests used:
[1] = Water solubility of alkylene glycol dilevulinates; assay type: physicochemical
Source text: Ethylene glycol dilevulinate (EGDL) is 100% water soluble while 1,2-propylene glycol dilevulinate (1,2-PGDL) is 10% soluble by weight in water, and 1,3-propylene glycol dilevulinate (1,3-PGDL) is 25% soluble. All three compounds also dissolve aromatic hydrocarbon compounds such as toluene and xylene, while having limited solubility for simple aliphatic hydrocarbons such as hexane and cyclohexane. Thus, C2-C3 alkylene glycol dilevulinates appear to provide the greatest benefits when used as coupling agents in water-based cleaning formulations.

[2] = Coupling effectiveness / phase stability with d-limonene (Sets I & II); assay type: physicochemical; design: key to appearance of sample formulation (coupling of d-limonene): clear: Clear indicates successful coupling of the d-limonene; cloudy indicates poor or no coupling; conditions: for effectiveness at coupling d-limonene: absence of surfactant (0% SLS); for d-limonene level successfully coupled: 1% SLS, solvent at a 20% level, highest d-limonene level tested; for appearance of sample formulation (coupling of d-limonene): 20% coupling agent, Column 6
Protocol: Two sets of experiments (I & II) were performed to determine the relative coupling effectiveness of fragrance (d-limonene)-containing aqueous formulations having various traditional coupling agents (glycol ethers) and those having various alkylene glycol dilevulinates as the coupling agents, at various temperatures (5° C., room temperature (25° C.) and 40° C.). The details are provided below and the results are shown in diagrams provided in FIGS. 1-16 and explained hereinbelow.
Stock solutions were prepared that contained the main components which didn't change throughout these experiments. Each formulation contained the following standard ingredients: […]
With reference now to the figures, FIGS. 1-8 relate to the Set of Comparative Examples. Each circle represents one sample formulation. More particularly, each of FIGS. 1 & 5 provide a schematic grid diagram of the general layout of sample formulations having various types of glycol ethers as coupling agents and various amounts of d-limonene fragrance, in the presence of 1% SLS surfactant and absence (0% SLS) of surfactant.
FIGS. 2-4 & 6-8 show the results (clear/white or cloudy/black) for the sample formulations identified in the grids of FIGS. 1 and 5 at 5° C., room temperature (25° C.), and 40° C., respectively. Clear indicates successful coupling of the d-limonene and cloudy indicates poor or no coupling.
FIGS. 9-16 relate to the Set II of Working Examples. As with FIGS. 1-8, each circle represents one sample formulation. More particularly, FIG. 9 provides a schematic grid diagram of the general layout of sample formulations having various types of alkylene glycol dilevulinates as coupling agents and various amounts of d-limonene fragrance. For instance, rows A & B of the grid in FIG. 9 were formulations that each had 0.25% by weight d-limonene. Thus, rows A & B of each of FIGS. 10-12 & 14-16 depict formulations that had 0.25% by weight d-limonene.
FIGS. 10-12 & 14-16 show the results (clear/white or cloudy/black) for the sample formulations identified in the grids of FIGS. 9 & 13 at 5° C., room temperature (25° C.), and 40° C., respectively. Clear indicates successful coupling of the d-limonene and cloudy indicates poor or no coupling.

| water soluble / soluble by weight in water [1] [%] | d-limonene level successfully coupled [2] [%] | SMILES | effectiveness at coupling d-limonene [2] | also measured |
| --- | --- | --- | --- | --- |
| 10 | – | CC(=O)CCC(=O)OCC(C)OC(=O)CCC(C)=O (centres unmarked) [1,2-PGDL, 1,2-propylene glycol dilevulinate] | – | – |
| 25 | – | CC(=O)CCC(=O)OCCCOC(=O)CCC(C)=O [1,3-PGDL, 1,3-propylene glycol dilevulinate] | – | – |
| – | – | CC(=O)CCC(=O)OCCCOC(=O)CCC(C)=O [1,3-propylene glycol dilevulinate] | better than 1,2-propylene glycol dilevulinate | – |
| – | 3 | COC(C)COC(C)CO (centres unmarked) [DOWANOL DPM, dipropylene glycol methyl ether] | – | d-limonene level coupled into an aqueous mixture ([2]; absence of added SLS surfactant): more than 0.25% |
| 100 | – | CC(=O)CCC(=O)OCCOC(=O)CCC(C)=O [EGDL, ethylene glycol dilevulinate] | better than 1,2-propylene glycol dilevulinate | appearance of sample formulation (coupling of d-limonene) ([2]; 5° C. (FIG. 2), 1.5% d-limonene, Row F): clear; appearance of sample formulation (coupling of d-limonene) ([2]; 40° C., 1.5% d-limonene, Row F): cloudy; appearance of sample formulation (coupling of d-limonene) ([2]; room temperature (FIG. 3), 1.5% d-limonene, Row F): clear |
| – | 3 | CCCCCCOCCOCCO [HxCb, diethylene glycol n-hexyl ether] | – | appearance of sample formulation (coupling of d-limonene) ([2]; 5° C. (FIG. 2), 0.75% d-limonene, Row D): cloudy; appearance of sample formulation (coupling of d-limonene) ([2]; 40° C., 0.75% d-limonene, Row D): cloudy; appearance of sample formulation (coupling of d-limonene) ([2]; room temperature (FIG. 3), 0.75% d-limonene, Row D): clear |

Reference: patent US8586522B2, “Glycol dilevulinates as coupling agents in cleaning formulations” (Dow Global Technologies LLC, priority 2011, dated 2013)
